Results reported in patent publication US20080070971A1, “Medical Use of Bilirubin and its Structural Analogues” (priority 2006, published 2008).

Columns and labels:
Assay type in all cases: biochemical
[1] = biological target: T1, HMG-CoA reductase (Homo sapiens, UniProt P04035); assay: HMG-CoA reductase assay in liver microsomes; details: 10 mg/L (FIG. 5)
T1 construct: from tissue; host or cells: liver microsomes
T1 sequence (P04035 1-888): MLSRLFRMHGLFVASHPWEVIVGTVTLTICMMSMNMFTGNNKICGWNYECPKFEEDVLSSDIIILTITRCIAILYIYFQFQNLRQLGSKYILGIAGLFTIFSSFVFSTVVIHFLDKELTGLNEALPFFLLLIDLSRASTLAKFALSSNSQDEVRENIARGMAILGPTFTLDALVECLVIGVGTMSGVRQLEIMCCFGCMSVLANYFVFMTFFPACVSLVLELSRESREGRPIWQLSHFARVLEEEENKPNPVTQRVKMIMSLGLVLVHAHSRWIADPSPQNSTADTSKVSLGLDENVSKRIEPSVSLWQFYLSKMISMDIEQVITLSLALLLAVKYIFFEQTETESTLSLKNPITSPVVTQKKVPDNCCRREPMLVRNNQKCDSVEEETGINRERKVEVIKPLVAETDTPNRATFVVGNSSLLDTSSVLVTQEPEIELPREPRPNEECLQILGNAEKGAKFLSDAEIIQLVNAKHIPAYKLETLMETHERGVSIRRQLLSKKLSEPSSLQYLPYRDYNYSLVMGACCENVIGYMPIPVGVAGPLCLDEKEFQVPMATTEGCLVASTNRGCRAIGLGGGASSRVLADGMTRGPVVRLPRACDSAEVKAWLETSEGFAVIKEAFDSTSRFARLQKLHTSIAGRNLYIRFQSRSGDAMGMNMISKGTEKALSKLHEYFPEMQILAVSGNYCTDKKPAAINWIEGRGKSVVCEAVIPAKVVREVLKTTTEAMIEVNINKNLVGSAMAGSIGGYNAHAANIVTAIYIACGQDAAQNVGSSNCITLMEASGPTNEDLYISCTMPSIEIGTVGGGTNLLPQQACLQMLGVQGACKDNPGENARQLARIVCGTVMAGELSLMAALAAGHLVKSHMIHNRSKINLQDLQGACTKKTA
Experimental: Liver microsomes, which are used to investigate cholesterol metabolism, were prepared as follows. Liver was homogenized in 50 mM Tris HCl buffer (pH 7.4), containing 0.3 M sucrose, 10 mM DTT, and 10 mM EDTA. The homogenate was centrifuged at 20,000×g for 15 min, and the supernatant was centrifuged at 100,000×g for 60 min. The resulting microsomal fraction was suspended in 3 ml of 0.1 M potassium phosphate buffer (pH 7.4), containing 1 mM EDTA and 5 mM DTT. Aliquots were immediately frozen in liquid nitrogen and stored at −20° C. until analysis.
Assay of HMG-CoA reductase. Microsomal suspensions of […], containing 5 mg protein, were preincubated for 5 min at 37° C. with […] of 0.1 M potassium phosphate buffer (pH 7.4), containing 1 mM EDTA and 12 mM glucose-6-phosphate. The assay was initiated by adding […] of cofactor-substrate solution (0.1 mM HMG-CoA, 3 mM MADPH, and 2 U/ml glucose-6-phosphate dehydrogenase). The incubation was performed at 37+ C. for 30 min and was terminated by the addition of […] of 1 M MaOH. After lactonization, the mevalonolactone was separated by thin layer chromatography. The eluate, which contained mevalonolactone, was collected in a scintillation vial. The radioactivity was then counted in a Packard 3320 scintillation spectrometer.

[2] = biological target: T2, acetylcholinesterase (Homo sapiens, UniProt P22303); assay: Acetylcholinesterase activity by choline release; details: at high bilirubin concentrations (FIG. 2)
T2 construct: purchased SigmaAldrich C0663
Experimental: Since bilirubin itself gives an absorption peak at 460 nm, which interferes with the cholinesterase assay procedures in many standard assay kits, a modified method was developed. The acetylcholinesterase activity was determined by measuring the quantity of choline release from acetylcholine:
Briefly, after 30 minutes reaction in the above acetylcholine-enzyme solution at pH=7.8, in the absence or presence of bilirubin, the reaction was stopped by heating to about 100° C. in boiling water. The solution was then cooled down to 37° C. Residual bilirubin was neutralized by titrating with H2O2. The amount of choline was then determined by the following choline oxidase assay method provided by SigmaAldrich (Cat.# C5896): […]

[3] = system: malate dehydrogenase (MDH); assay: Malate dehydrogenase inhibition; details: concentration equivalent to the moderate level of serum bilirubin (FIG. 7)
[4] = biological target: T3, isocitrate dehydrogenase (ICDH) (Sus scrofa, UniProt P33198); assay: Isocitrate dehydrogenase inhibition; details: concentration equivalent to the moderate level of serum bilirubin (FIG. 7)
T3 construct: purchased SigmaAldrich I2516
T3 sequence (P33198 9-421): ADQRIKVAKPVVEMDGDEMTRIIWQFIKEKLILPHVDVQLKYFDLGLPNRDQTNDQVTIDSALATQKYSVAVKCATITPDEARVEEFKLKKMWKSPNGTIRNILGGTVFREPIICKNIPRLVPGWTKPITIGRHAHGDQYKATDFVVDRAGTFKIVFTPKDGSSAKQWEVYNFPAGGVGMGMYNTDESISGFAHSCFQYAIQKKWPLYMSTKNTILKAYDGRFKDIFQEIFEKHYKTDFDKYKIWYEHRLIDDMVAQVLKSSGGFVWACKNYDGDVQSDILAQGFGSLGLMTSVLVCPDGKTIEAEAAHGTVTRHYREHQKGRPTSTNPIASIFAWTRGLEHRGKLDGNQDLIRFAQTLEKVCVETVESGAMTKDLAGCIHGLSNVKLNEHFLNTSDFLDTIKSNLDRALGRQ
Experimental: NAD (Cat.#N1511), NADH (Cat. N9410), NADP (Cat.#N8610) and NADPG (Cat. #N7505), HMG-CoA (Cat.#H6132) were purchased from Sigma Aldrich (St. Louis, Mo.). NADP-linked isocitrate dehydrogenase was also obtained from SigmaAldrich (Cat.#I2516). Other liver enzymes were prepared as follows.

T2 sequence (P22303 32-617 isoform P22303-2 limits assumed): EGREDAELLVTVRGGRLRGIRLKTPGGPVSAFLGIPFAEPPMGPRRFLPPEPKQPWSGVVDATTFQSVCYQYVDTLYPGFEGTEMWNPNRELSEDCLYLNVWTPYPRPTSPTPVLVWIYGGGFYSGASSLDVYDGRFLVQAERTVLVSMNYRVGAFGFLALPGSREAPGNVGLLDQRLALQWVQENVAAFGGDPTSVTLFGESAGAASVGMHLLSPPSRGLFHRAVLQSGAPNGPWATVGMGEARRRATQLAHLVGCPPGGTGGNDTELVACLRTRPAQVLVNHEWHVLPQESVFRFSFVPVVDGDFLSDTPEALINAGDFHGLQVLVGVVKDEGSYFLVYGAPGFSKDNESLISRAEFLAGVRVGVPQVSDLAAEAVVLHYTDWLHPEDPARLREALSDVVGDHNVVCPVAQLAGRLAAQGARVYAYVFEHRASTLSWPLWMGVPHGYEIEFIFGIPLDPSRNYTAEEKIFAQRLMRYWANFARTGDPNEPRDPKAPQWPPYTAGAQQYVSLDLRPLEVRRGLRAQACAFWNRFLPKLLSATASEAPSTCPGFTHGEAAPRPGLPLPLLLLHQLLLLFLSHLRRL

Compound: C=CC1=C(C)C(=Cc2[nH]c(Cc3[nH]c(C=C4NC(=O)C(C)=C4C=C)c(C)c3CCC(=O)O)c(CCC(=O)O)c2C)NC1=O [bilirubin, 2,7,13,17-tetramethyl-1,19-dioxo-3,18-divinyl-1,10,19,22,23,24-hexahydro-21H-biline-8,12-dipropanoic acid]
- reduction of HMG-CoA reductase activity [1]: ≤ 60%
- acetylcholinesterase activity [2]: completely eliminated
- inhibition of malate dehydrogenase [3]: strongly suppressed
- inhibition of isocitrate dehydrogenase [4]: strongly suppressed
